For orientation: EC50 means the concentration giving half of the maximal effect. As a reminder, the IC50 is the concentration needed to halve the response being measured.

For data set [1], the target named is T1, hM1 (Homo sapiens, UniProt P11229).
T1 sequence (P11229 1-460): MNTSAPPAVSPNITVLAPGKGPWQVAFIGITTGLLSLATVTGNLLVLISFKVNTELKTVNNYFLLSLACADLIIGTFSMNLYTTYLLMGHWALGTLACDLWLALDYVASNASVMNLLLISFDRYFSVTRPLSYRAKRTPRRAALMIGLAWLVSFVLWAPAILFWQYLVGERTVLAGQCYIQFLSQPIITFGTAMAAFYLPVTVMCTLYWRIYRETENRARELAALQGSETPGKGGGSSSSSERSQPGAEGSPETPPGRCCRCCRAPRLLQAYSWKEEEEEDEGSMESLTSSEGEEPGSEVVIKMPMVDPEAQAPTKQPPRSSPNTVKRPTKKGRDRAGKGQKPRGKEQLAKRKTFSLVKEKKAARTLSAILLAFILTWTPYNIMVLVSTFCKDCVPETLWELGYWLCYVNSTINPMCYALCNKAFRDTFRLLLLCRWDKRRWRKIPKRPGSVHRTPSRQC
The data set can be described thus: hM1 antagonist calcium mobilization assay. In kind it is cell-based. To be noted: for fold loss in potency/activity relative to ML012: hM1, versus ML012; for hM1 antagonist activity in words: highest concentration tested 30 μM. Background: Calcium assays in cells follow changes in intracellular calcium, usually with a dye or a luminescent sensor.

Data set [2] can be described thus: rat pharmacokinetics and CNS exposure. In kind it is in vivo. To be noted: dosed orally at 10 mg/kg.
For data set [3], the system named is rat M1–5 receptors. The data set can be described thus: selectivity across the rat mAChRs, calcium mobilization assay. To be noted: Figure 4. It counts as cell-based.
Data set [4] addresses T2, rM1 (Rattus norvegicus, UniProt P08482).
T2 sequence (P08482 1-460): T1 sequence (P11229 1-460) with A5V, T254S, P309S, R320K, A337G, I413V
The experiment in a line: rat M1 antagonist calcium mobilization assay. In kind it is cell-based.

Data set [5] in a line: in vitro DMPK prediction of clearance. In kind it is in vitro ADME.
Data set [6] has as its system pilocarpine-induced seizures. To be noted: rodent models; cited from earlier work.
In data set [7] the test system is contextual freezing. To be noted: at doses that reduced seizures; cited from earlier work.
In data set [8] the target is T1, hM1. To be noted: read-out: IC50 for ML012 previously reported; cited from earlier work.

Where a chain is given by its changes, count along the chain named. Read-outs that look alike come from different tables or passages of the source.

Regarding `O=C(C(F)CNS(=O)(=O)c1cccc2nonc12)N1CCN(c2ccncc2)CC1` (stereo not shown) [Compound 9], the “fold decrease in potency relative to 13b” value in data set [1] (hM1, versus 13b) is recorded as “roughly 2 fold”.

For `CN(CCC(=O)N1CCN(c2ccncc2)CC1)S(=O)(=O)c1cccc2nsnc12` [Compound 12], in data set [1], the “fold loss in potency/activity relative to ML012” value is on record as “greater than 14 fold”.

Take `O=C(CCNS(=O)(=O)c1cccc2nsnc12)N1CCN(c2ccccn2)CC1` [Compound 6d]: the “fold loss in potency/activity relative to ML012” value in data set [1] is “roughly 14 fold”.

In the case of `O=S(=O)(NCCCN1CCN(c2ccncc2)CC1)c1cccc2nsnc12` [Compound 7], the “fold loss in potency/activity relative to ML012” value in data set [1] was “greater than 14 fold”.

`O=C(CCNS(=O)(=O)c1cccc2ncccc12)N1CCN(c2ccncc2)CC1` [Compound 13l]: in data set [2], the “CNS concentrations / CNS exposure” value was “undetectable”. For the same compound, in data set [3], the “selectivity for the M1 receptor over the M2–5 subtypes” value is on record as “very high selectivity”. Moreover, the EC50 in data set [4] amounted to 0.18 µM. Moreover, in data set [5], the “in vitro DMPK prediction of clearance” value is listed as “high clearance”.

For `C[C@H](CC(=O)N1CCN(c2ccncc2)CC1)NS(=O)(=O)c1cccc2nonc12` [Compound 10], the “hM1 antagonist activity in words” value in data set [1] is “completely inactive”.

For the compound `O=C(CCNS(=O)(=O)c1cccc2scnc12)N1CCN(c2ccncc2)CC1` [Compound 13j], the “hM1 antagonist activity in words” value in data set [1] is “inactive”.

Consider `O=C(CCNS(=O)(=O)c1cccc2ccccc12)N1CCN(c2ccc(Br)cn2)CC1` [Compound 13i], for which the “hM1 antagonist activity in words” value in data set [1] was “complete loss of activity”.

Turning to `O=C(CCNS(=O)(=O)c1cccc2nonc12)N1CCN(c2ccncc2)CC1` [Compound 13b], in data set [1], the IC50 stood at 4.5 µM and the “fold loss in potency/activity relative to ML012” value was determined as 4 fold.

With `O=C(CCNS(=O)(=O)c1cccc2nonc12)N1CCN(c2ccc(Br)cn2)CC1` [Compound 13a], the “fold decrease in activity relative to sulfur analog 6j” value in data set [1] (hM1, versus 6j) is recorded as 3 fold.

On to `O=C(CCNS(=O)(=O)c1cccc2nsnc12)N1CCN(c2ccncc2)CC1` [ML012], for which, in data set [6], the “effect on pilocarpine-induced seizures” value is recorded as “reduced pilocarpine-induced seizures”. Besides, the “deficits in contextual freezing” value in data set [7] is listed as “did not induce deficits in contextual freezing”. In data set [3], the “selectivity for the M1 receptor over the M2–5 subtypes” value is listed as “selectively antagonize the M1 mAChR relative to the M2–5 mAChRs”. The IC50 in data set [8] was 0.132 µM. In addition, the EC50 in data set [4] amounted to 0.24 µM.

(Values after publication PMC3434972 (Bioorganic & medicinal chemistry letters, 2011).)
